Experimental data taken from the NIST ThermoML archive (doi:10.1021/acs.jced.6b00772).

Conditions: Fluid (supercritical or subcritical phases), isochoric method

O=C(C(F)(F)C(F)(F)F)C(F)(C(F)(F)F)C(F)(F)F [dodecafluoro-2-methylpentan-3-one]
Conditions	mass density [kg/m3]
333.47 K, 4628.4 kPa	1526.2
343.46 K, 3695.1 kPa	1489
353.46 K, 597.1 kPa	1425.9
353.46 K, 7818.2 kPa	1488.3
363.45 K, 4019 kPa	1425.2
373.46 K, 849.3 kPa	1348
373.46 K, 7450.4 kPa	1424.5
383.46 K, 3567.3 kPa	1347.4
393.47 K, 6308 kPa	1346.8
393.5 K, 1730.8 kPa	1273.5
403.46 K, 831.5 kPa	107.8
403.46 K, 9056.2 kPa	1346.1
403.48 K, 1044.1 kPa	1195.8
403.5 K, 3917.8 kPa	1272.9
413.46 K, 1666.3 kPa	1157.5
413.48 K, 873.1 kPa	107.8
413.48 K, 2784 kPa	1195.2
413.5 K, 6126.2 kPa	1272.3
423.47 K, 3219 kPa	1156.9
423.49 K, 913.6 kPa	107.7
423.49 K, 4554.9 kPa	1194.6
423.49 K, 8348.4 kPa	1271.7
433.46 K, 1423 kPa	209.1
433.47 K, 4799.8 kPa	1156.4
433.48 K, 2354.6 kPa	1044.1
433.49 K, 953.3 kPa	107.7
433.49 K, 1785.7 kPa	980.1
433.49 K, 6349 kPa	1194.1
443.47 K, 1703.9 kPa	270.5
443.48 K, 1517.2 kPa	209
443.48 K, 1862.8 kPa	384.5
443.48 K, 1909.2 kPa	553.6
443.48 K, 2368.4 kPa	932
443.48 K, 6401.8 kPa	1155.8
443.49 K, 991.3 kPa	107.6
443.49 K, 1905.5 kPa	490.7
443.49 K, 1950.5 kPa	733.6
443.5 K, 1925.1 kPa	626.4
443.5 K, 1983.4 kPa	797.9
443.5 K, 2050.5 kPa	844.7
443.5 K, 2089.1 kPa	861.9
443.5 K, 2696.6 kPa	979.6
443.5 K, 3478.7 kPa	1043.6
443.5 K, 8156.2 kPa	1193.5
453.48 K, 3187.2 kPa	931.6
453.49 K, 1028.2 kPa	107.6
453.49 K, 2074 kPa	384.3
453.49 K, 2237.3 kPa	553.3
453.49 K, 2415.6 kPa	733.2
453.49 K, 8016.6 kPa	1155.3
453.5 K, 1608.6 kPa	208.9
453.5 K, 1836 kPa	270.4
453.5 K, 2302.1 kPa	626.1
453.5 K, 2679.9 kPa	844.3
453.51 K, 3642.6 kPa	979.1
453.51 K, 4628.3 kPa	1043.2
453.52 K, 2543.8 kPa	797.5
453.52 K, 2753.3 kPa	861.5
453.52 K, 9972.1 kPa	1192.9
453.53 K, 2192.7 kPa	490.4
463.48 K, 1697.6 kPa	208.8
463.49 K, 1963.3 kPa	270.2
463.49 K, 5794.1 kPa	1042.7
463.5 K, 1065.3 kPa	107.5
463.5 K, 2277.3 kPa	384.1
463.5 K, 2561.8 kPa	553
463.5 K, 2685.7 kPa	625.8
463.5 K, 2908.5 kPa	732.9
463.5 K, 4032.8 kPa	931.2
463.5 K, 9636.7 kPa	1154.7
463.51 K, 2470.7 kPa	490.2
463.51 K, 3127.9 kPa	797.1
463.51 K, 3336.1 kPa	843.9
463.52 K, 3442 kPa	861.1
463.52 K, 4610 kPa	978.7
473.49 K, 2087.5 kPa	270.1
473.49 K, 3412 kPa	732.5
473.49 K, 4891.4 kPa	930.7
473.5 K, 1102 kPa	107.5
473.5 K, 1785 kPa	208.7
473.5 K, 2476.2 kPa	383.9
473.5 K, 2884.8 kPa	552.8
473.5 K, 3074.2 kPa	625.5
473.51 K, 2746.7 kPa	490
473.51 K, 5591.7 kPa	978.2
473.51 K, 6974.8 kPa	1042.2
473.52 K, 4008.9 kPa	843.5
473.52 K, 4147 kPa	860.7
473.53 K, 3727.6 kPa	796.7
483.48 K, 5762.4 kPa	930.3
483.49 K, 1870.9 kPa	208.6
483.49 K, 2209.8 kPa	270
483.49 K, 2672.1 kPa	383.8
483.5 K, 3464.6 kPa	625.2
483.5 K, 3924.7 kPa	732.2
483.5 K, 8161 kPa	1041.7
483.51 K, 1138.4 kPa	107.4
483.51 K, 3208.9 kPa	552.5
483.52 K, 3020.8 kPa	489.7
483.52 K, 4336.7 kPa	796.4
483.52 K, 4691.3 kPa	843.1
483.52 K, 4863.8 kPa	860.3
483.52 K, 6584 kPa	977.8
493.49 K, 1955 kPa	208.5
493.49 K, 2329.9 kPa	269.9
493.49 K, 2865 kPa	383.6
493.5 K, 3858.2 kPa	624.9
493.5 K, 4442.7 kPa	731.8
493.5 K, 6642.5 kPa	929.8
493.5 K, 9354.4 kPa	1041.2
493.51 K, 1174.7 kPa	107.4
493.51 K, 5382.6 kPa	842.7
493.52 K, 3532.9 kPa	552.2
493.52 K, 4954.4 kPa	796
493.52 K, 5589.2 kPa	859.9
493.53 K, 7585.3 kPa	977.3
493.54 K, 3292.9 kPa	489.5
503.49 K, 7526.9 kPa	929.4
503.5 K, 2038.9 kPa	208.4
503.5 K, 2448.7 kPa	269.7
503.51 K, 1210.7 kPa	107.3
503.51 K, 3055.8 kPa	383.4
503.51 K, 4251.2 kPa	624.7
503.52 K, 3562.4 kPa	489.3
503.52 K, 4964.5 kPa	731.5
503.53 K, 3855.8 kPa	552
503.53 K, 5577.4 kPa	795.6
503.53 K, 6079.9 kPa	842.3
503.53 K, 6319.5 kPa	859.5
503.53 K, 8592.1 kPa	976.8
513.49 K, 2121.4 kPa	208.3
513.49 K, 2565.8 kPa	269.6
513.5 K, 1245.5 kPa	107.3
513.5 K, 4646.1 kPa	624.4
513.5 K, 5488.2 kPa	731.1
513.5 K, 8416.4 kPa	928.9
513.51 K, 3244.9 kPa	383.2
513.52 K, 4177.8 kPa	551.7
513.52 K, 6780.4 kPa	841.9
513.52 K, 7055 kPa	859.1
513.53 K, 3830.9 kPa	489
513.53 K, 9599.7 kPa	976.4
513.54 K, 6204.5 kPa	795.2
523.49 K, 2682.3 kPa	269.5
523.49 K, 5040.8 kPa	624.1
523.49 K, 9308.2 kPa	928.5
523.5 K, 1281.4 kPa	107.2
523.5 K, 2203.4 kPa	208.2
523.5 K, 3433 kPa	383
523.52 K, 4099.2 kPa	488.8
523.52 K, 6015.2 kPa	730.8
523.53 K, 6832.9 kPa	794.9
523.53 K, 7485.5 kPa	841.5
523.54 K, 4499.9 kPa	551.5
523.54 K, 7793.7 kPa	858.7
